System: soybeans (Fukuyutaka)
Assay: Electron transfer rate (ETR) by PAM fluorometry after foliar spraying and paraquat application
Type: in vivo, soybean
Settings: 24 h after paraquat
Description: In FIG. 1 to FIG. 18 related to the examples, the relative value indicated above each bar chart in each drawing means a relative value when T1 in each drawing is 100. When an X % increase (relative to T2) is indicated above each bar chart in each drawing, it means that the value increases by X % relative to the value of T2 in each drawing. When a Y % decrease (relative to T2) is indicated above each bar chart in each drawing, it means that the value decreases by Y % relative to the value of T2 in each drawing.
A 9 cm poly pot was filled with culture soil and seeded with three soybeans (Fukuyutaka).
After seeding, the soybeans were cultivated in an incubator set in a light period (6:00-18:00, temperature 26° C., illuminance 120 μmol/m^2·s) and a dark period (18:00-6:00, temperature 18° C.). After germination, they were thinned to one plant.
(§1) After the first true leaf development, in each of the following treatments, foliar spraying of the following liquid (composition for reducing reactive oxygen) was conducted on each plant (application of the composition for reducing reactive oxygen). Twenty-four hours after the foliar spraying, foliar spraying of a paraquat aqueous solution with SILWET L-77 added to make a 1,000-fold dilution was conducted on each plant, except for a Control (T1) (paraquat application).
Electron transfer rate (ETR) was measured by pulse amplitude modulated fluorometry (PAM fluorometry) twenty-four hours after the paraquat application. In addition, twenty-four hours after the paraquat application, a SPAD value was measured using a chlorophyll meter.
as §1, with “for the” for “for a”
ETR was measured by the PAM fluorometry twenty-four hours after the paraquat application. In addition, twenty-four hours after the paraquat application, a SPAD value was measured using a chlorophyll meter.
After seeding, the soybeans were cultivated in an incubator set in a light period (6:00-18:00, temperature 26° C., illuminance 120 μmol/m^2·s)

Substance	ETR compared with T2 (Experimental Example 4, T3: SL diluted 1000 times, PAR 1496)	ETR compared with T2 (Experimental Example 3, T3: SF diluted 10000 times, PAR 1496)	ETR compared with T2 (Experimental Example 6, T3: SF diluted 10000 times, PAR 1496)	ETR compared with T2 (Experimental Example 9, T3: SF diluted 2000 times, PAR 1455)
sophorolipid [SL]	slightly increased	–	–	–
surfactin Na [SF]	–	slightly increased	slightly increased	significantly increased

Source: patent US20250248403A1, “COMPOSITION FOR REDUCING AMOUNT OF REACTIVE OXYGEN” (KANEKA CORPORATION, priority 2022, published 2025)
